Like-named read-outs stand apart in the source and are kept apart here.
Experiments:
HCV genotype 1b replicon = assay: HCV replicon assay (Zluc luciferase); format: cell-based
Experimental: Huh-7-derived cell line (Zluc) that harbors an HCV genotype 1b replicon and a luciferase reporter gene was grown in Dulbecco's Modified Eagle Medium (DMEM) supplemented with 10% fetal bovine serum, 2 mM GlutaMAX, 1% MEM nonessential amino acids, 100 IU/mL penicillin, 100 μg/mL streptomycin, and 0.5 mg/mL Geneticin® (G418). For dose response testing the cells were seeded in 96-well plates at 7.5×10^3 cells per well in a volume of 50 μL, and incubated at 37° C./5% CO2. Drug solutions were made up freshly in Huh-7 media as 2× stocks. Ten additional 5-fold dilutions were prepared from these stocks in DMEM without G418. At least three hours after Zluc cells were seeded, drug treatment was initiated by adding 50 μL of drug dilutions to the plates in duplicate. Final concentrations of drug ranged from 100 μM to […]. Cells were then incubated at 37° C./5% CO2. Alternatively, compounds were tested at two concentrations (1 μM and 10 μM). […] For this, media was removed from the plates via gentle tapping. Fifty microliters of ONE-glo luciferase assay reagent was added to each well. The plates were shaken gently for 3 min at room temperature and luminescence was measured on a Victor^3 V 1420 multilabel counter (Perkin Elmer) with a 1 second read time using a 700 nm cut-off filter. The EC50 values were calculated from dose response curves from the resulting best-fit equations determined by Microsoft Excel and XLfit 4.1 software. When screening at two fixed concentrations, the results were expressed as % inhibition at 1 μM and 10 μM.

Zluc cells = assay: Cytotoxicity evaluation, CellTiter-Blue Cell Viability Assay; details: Zluc cells, CellTiter-Blue
[1] = Liver triphosphate pharmacokinetics after single oral dose in CD-1 mice; format: in vivo; design: key: + ≤ 15; 15 < ++ ≤ 50; 50 < +++ ≤ 100; 100 < ++++; BLQ = below limit of quantitation; details: single oral dose 10 mg/kg in PEG 200;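 as to Ms Liver TP AUC: pmol·h/g liver normalized to a 1 µmol/kg dose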;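 as to Ms Liver TP Cmax: pmol/g liver normalized to a 1 µmol/kg dose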
Experimental: Internal standard solution was added to the homogenate followed by neutralization with 20% ammonium hydroxide solution and addition of 500 μL 1% formic acid. The tissue samples were extracted by weak anion exchange solid phase extraction (SPE). Post extraction, the eluates were evaporated under nitrogen, followed by reconstitution before injection onto the LC-MS/MS system.

[2] = Plasma nucleoside pharmacokinetics after single oral dose in CD-1 mice; format: in vivo; details: single oral dose 10 mg/kg in PEG 200;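 as to Ms Plasma nucleoside AUC: pmol·h/mL plasma normalized to a 1 µmol/kg dose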
Experimental: Plasma samples were analyzed for nucleoside by LC-MS/MS. The internal standard (IS) was either 2′-MeG-D3 or tiapride. For protein precipitation and extraction, each plasma sample (50 μL) was treated with 500 μL of 0.2% formic acid in acetonitrile and 20 μL of the internal standard working solution. After vortexing and centrifugation, 500 μL of the sample extracts were transferred to a new plate, dried under N2 at ˜28° C. and reconstituted with 75 μL of 0.2% FA in water. The extracts were chromatographed on an Aquasil C18 column using a gradient system of 0.2% formic acid in water and acetonitrile. The analytes were detected and quantified by tandem mass spectrometry in positive ion mode on an MDS Sciex API5000 equipped with a Turbo Ionspray® interface. The calibration range was 0.500 (LLOQ) to 200 ng/mL in mouse plasma.

[3] = Zluc cells, 72 hours; read-out: HCV Replicon EC50

| Compound | EC50 (HCV genotype 1b replicon; [3]) [µM] | CC50 (Zluc cells) [µM] | Ms Liver TP AUC [1] | Ms Liver TP Cmax [1] | Ms Plasma nucleoside AUC [2] | Ms Plasma nucleoside Cmax [2] | EC50 (HCV genotype 1b replicon; read-out: HCV Replicon EC50; Zluc cells, 72 hours) [µM] |
| --- | --- | --- | --- | --- | --- | --- | --- |
| CC(C)OC(=O)C(C)NP(=O)(OCC1OC(n2cnc3c(=O)[nH]c(N)nc32)C(C)(Cl)C1O)Oc1ccccc1 (mixture of isomers) [Compound 21ii Mixture of P-Diastereoisomers] | > 10 | > 50 |  |  |  |  |  |
| CCOc1nc(N)nc2c1ncn2[C@@H]1O[C@H](COP(=O)(N[C@@H](C)C(=O)OC(C)C)Oc2ccccc2)[C@@H](O)[C@@]1(C)Cl (single isomer, unassigned) [Compound 17ii Diastereomer 2] | 1 to 10 | > 50 | BLQ | BLQ |  |  |  |
| CC(C)OC(=O)[C@H](C)NP(=O)(OC[C@H]1O[C@@H](n2cnc3c(=O)[nH]c(N)nc32)[C@](C)(Cl)[C@@H]1O)Oc1ccccc1 (single isomer, unassigned) [Compound 21ii Diastereomer 2] | > 10 | > 50 |  |  |  |  |  |
| CC(C)(CO)C(=O)SCCOP(=O)(NCc1ccccc1)OC[C@H]1O[C@@H](n2ccc(=O)[nH]c2=O)[C@](C)(Cl)[C@@H]1O (single isomer, unassigned) [Compound 54 Diastereomer 1] |  |  | + (+ ≤ 150) | ++ (15 < ++ ≤ 50) | +++ (500 < +++ ≤ 1500) | +++ (50 < +++ ≤ 100) |  |
| CC(C)(CO)C(=O)SCCOP(=O)(NCc1ccccc1)OC[C@H]1O[C@@H](n2ccc(=O)[nH]c2=O)[C@](C)(Cl)[C@@H]1O (single isomer, unassigned) [Compound 54 Single Diastereoisomer] | 1 to 10 | > 50 |  |  |  |  |  |
| CC(C)(C)C(=O)SCCOP1(=O)OC[C@H]2O[C@@H](n3ccc(N)nc3=O)[C@](C)(Cl)[C@@H]2O1 (single isomer, unassigned) [Compound 61 Diastereomer 2] | < 0.25 | > 50 | +++ (500 < +++ ≤ 1500) | ++++ (100 < ++++) | + (+ ≤ 150) | + (+ ≤ 15) |  |
| CCOC(=O)COP(=O)(OC[C@H]1O[C@@H](n2ccc(=O)[nH]c2=O)[C@](C)(Cl)[C@@H]1O)Oc1ccccc1 (single isomer, unassigned) [Compound 72 Diastereomer 2] |  |  |  |  |  |  | > 10 |
| CC(C)OC(=O)[C@H](C)NP(=O)(OC[C@H]1O[C@@H](n2cc(F)c3c(N)ncnc32)[C@](C)(Cl)[C@@H]1O)Oc1ccccc1 (single isomer, unassigned) [Compound 207ii Diastereomer 2] | > 10 | > 50 |  |  |  |  |  |
| CC(C)OC(=O)[C@H](C)NP(=O)(OC[C@H]1O[C@@H](n2ccc3c(N)ncnc32)[C@](C)(Cl)[C@@H]1O)Oc1ccccc1 (single isomer, unassigned) [Compound 208ii Diastereomer 2] | > 10 | > 50 | BLQ | BLQ |  |  |  |
| CC(C)OC(=O)[C@H](C)NP1(=O)OC[C@H]2O[C@@H](n3cnc4c(N)ncnc43)[C@](C)(Cl)[C@@H]2O1 (single isomer, unassigned; diastereoisomer 1) [Compound 77ii Diastereoisomer 1] | 1 to 10 | > 50 |  |  |  |  |  |
| CC(COC(=O)C(C)C)NP1(=O)OCC2OC(n3cnc4c(N)ncnc43)C(C)(Cl)C2O1 (single isomer, unassigned; diastereoisomer 1) [Compound 95 Diastereoisomer 1] | 0.25 to 1 | > 50 |  |  |  |  |  |
| CC(C)OC(=O)[C@H](C)NP1(=O)OC[C@H]2O[C@@H](n3cnc4c(N)ncnc43)[C@](C)(Cl)[C@@H]2O1 (single isomer, unassigned; diastereoisomer 2) [Compound 77ii Diastereoisomer 2] | 0.25 to 1 | > 50 |  |  |  |  |  |
| CC(COC(=O)C(C)C)NP1(=O)OCC2OC(n3cnc4c(N)ncnc43)C(C)(Cl)C2O1 (single isomer, unassigned; diastereoisomer 2) [Compound 95 Diastereoisomer 2] | 0.25 to 1 | > 50 |  |  |  |  |  |
| CC(C)OC(=O)[C@H](C)NP1(=O)OC[C@H]2O[C@@H](n3ccc(=O)[nH]c3=O)[C@](C)(Cl)[C@@H]2O1 (single isomer, unassigned; diastereomer 1) [Compound 38ii Diastereomer 1] |  |  | + (+ ≤ 150) | + (+ ≤ 15) | +++ (500 < +++ ≤ 1500) | +++ (50 < +++ ≤ 100) |  |
| CC(C)OC(=O)[C@H](C)NP(=O)(OCCSC(=O)C(C)(C)C)OC[C@H]1O[C@@H](n2ccc(=O)[nH]c2=O)[C@](C)(Cl)[C@@H]1O (single isomer, unassigned; diastereomer 1) [Compound 43ii Diastereomer 1] | 0.25 to 1 | > 50 |  |  |  |  |  |
| CC(C)OC(=O)[C@H](C)NP1(=O)OC[C@H]2O[C@@H](n3cnc4c(N)ncnc43)[C@](C)(Cl)[C@@H]2O1 (single isomer, unassigned; diastereomer 1) [Compound 77ii Diastereomer 1] |  |  | ++++ (1500 < ++++) | ++++ (100 < ++++) | + (+ ≤ 150) | + (+ ≤ 15) |  |
| CC(C)C(=O)OC[C@H](C)NP1(=O)OC[C@H]2O[C@@H](n3cnc4c(N)ncnc43)[C@](C)(Cl)[C@@H]2O1 (single isomer, unassigned; diastereomer 1) [Compound 95i Diastereomer 1] |  |  | + (+ ≤ 150) | + (+ ≤ 15) | + (+ ≤ 150) | + (+ ≤ 15) |  |
| CC(C)OC(=O)[C@@H](C)NP(=O)(OC[C@H]1O[C@@H](n2ccc(=O)[nH]c2=O)[C@](C)(Cl)[C@@H]1O)SC1CCCC1 (single isomer, unassigned; diastereomer 1) [Compound 206i Diastereomer 1] |  |  | +++ (500 < +++ ≤ 1500) | ++++ (100 < ++++) | +++ (500 < +++ ≤ 1500) | +++ (50 < +++ ≤ 100) |  |
| CC(C)OC(=O)[C@H](C)NP1(=O)OC[C@H]2O[C@@H](n3ccc(=O)[nH]c3=O)[C@](C)(Cl)[C@@H]2O1 (single isomer, unassigned; diastereomer 2) [Compound 38ii Diastereomer 2] |  |  | +++ (500 < +++ ≤ 1500) | ++ (15 < ++ ≤ 50) | +++ (500 < +++ ≤ 1500) | ++++ (100 < ++++) |  |
| CC(C)(CO)C(=O)SCCOP(=O)(NCc1ccccc1)OC[C@H]1O[C@@H](n2ccc(=O)[nH]c2=O)[C@](C)(Cl)[C@@H]1O (single isomer, unassigned; diastereomer 2) [Compound 54 Diastereomer 2] |  |  | + (+ ≤ 150) | + (+ ≤ 15) | +++ (500 < +++ ≤ 1500) | ++ (15 < ++ ≤ 50) |  |
| CC(C)OC(=O)[C@H](C)NP1(=O)OC[C@H]2O[C@@H](n3cnc4c(N)ncnc43)[C@](C)(Cl)[C@@H]2O1 (single isomer, unassigned; diastereomer 2) [Compound 77ii Diastereomer 2] |  |  | ++++ (1500 < ++++) | ++++ (100 < ++++) | + (+ ≤ 150) | + (+ ≤ 15) |  |
| CC(C)C(=O)OC[C@H](C)NP1(=O)OC[C@H]2O[C@@H](n3cnc4c(N)ncnc43)[C@](C)(Cl)[C@@H]2O1 (single isomer, unassigned; diastereomer 2) [Compound 95i Diastereomer 2] |  |  | ++ (150 < ++ ≤ 500) | + (+ ≤ 15) | + (+ ≤ 150) | + (+ ≤ 15) |  |
| CC(C)OC(=O)[C@@H](C)NP(=O)(OC[C@H]1O[C@@H](n2ccc(=O)[nH]c2=O)[C@](C)(Cl)[C@@H]1O)SC1CCCC1 (single isomer, unassigned; diastereomer 2) [Compound 206i Diastereomer 2] |  |  | +++ (500 < +++ ≤ 1500) | +++ (50 < +++ ≤ 100) | +++ (500 < +++ ≤ 1500) | +++ (50 < +++ ≤ 100) |  |
